For six compounds, MST and Activity results are on record in ChEMBL document CHEMBL5365536, “Synthesis of mizoribine prodrugs and their in vivo evaluation as immunosuppressive agents” (2023).

What all share (assay type): functional
Experiment [1] has as its system Mus musculus. In words: Immunosuppressive activity in BALB/c mouse allografted with C57 mouse cardiac tissue assessed as suppression of graft rejection by measuring graft median survival time at 83 mg/kg, po.
For experiment [2], the system named is Mus musculus. In words: Immunosuppressive activity in anti-CD3-stimulated mouse assessed as reduction in IL-2 level in whole blood at 40 mg/kg, po measured after 1 hr by flow cytometry analysis. More on the design: scale not given: the % may be the effect or the level left. For orientation: A flow cytometer gives signals particle by particle.
The test system of experiment [3] is Mus musculus. Put plainly: Immunosuppressive activity in anti-CD3-stimulated mouse assessed as reduction in IL-2 level in whole blood at 40 mg/kg, po measured after 4 hrs by flow cytometry analysis. On the set-up: scale not given: the % may be the effect or the level left.
For experiment [4], the system named is Mus musculus. Put plainly: Immunosuppressive activity in anti-CD3-stimulated mouse assessed as reduction in IL-2 level in whole blood at 40 mg/kg, po measured after 8 hrs by flow cytometry analysis. More on the design: scale not given: the % may be the effect or the level left.
Experiment [5] relates to Mus musculus. Put plainly: Immunosuppressive activity in BALB/c mouse allografted with C57 mouse cardiac tissue assessed as suppression of graft rejection by measuring graft median survival time at 83 mg/kg, po in presence of tacrolimus.
For experiment [6], the system named is Mus musculus. In words: Immunosuppressive activity in anti-CD3-stimulated mouse assessed as reduction in IL-2 level in whole blood at 55 mg/kg, po measured after 1 hr by flow cytometry analysis. On the set-up: scale not given: the % may be the effect or the level left.
Experiment [7] relates to Mus musculus. In words: Immunosuppressive activity in BALB/c mouse allografted with C57 mouse cardiac tissue assessed as suppression of graft rejection by measuring graft median survival time at 112 mg/kg, po.
Experiment [8] deals with Mus musculus. In words: Immunosuppressive activity in anti-CD3-stimulated mouse assessed as reduction in IL-2 level in whole blood at 55 mg/kg, po measured after 4 hrs by flow cytometry analysis. More on the design: scale not given: the % may be the effect or the level left.
Experiment [9] concerns Mus musculus. In words: Immunosuppressive activity in BALB/c mouse allografted with C57 mouse cardiac tissue assessed as suppression of graft rejection by measuring graft median survival time at 112 mg/kg, po in presence of tacrolimus.
Experiment [10] concerns Mus musculus. Put plainly: Immunosuppressive activity in anti-CD3-stimulated mouse assessed as reduction in IL-2 level in whole blood at 55 mg/kg, po measured after 8 hrs by flow cytometry analysis. More on the design: scale not given: the % may be the effect or the level left.
Experiment [11] deals with Mus musculus. Put plainly: Immunosuppressive activity in anti-CD3-stimulated mouse assessed as reduction in IL-2 level in whole blood at 65 mg/kg, po measured after 8 hrs by flow cytometry analysis. More on the design: scale not given: the % may be the effect or the level left.
Experiment [12] deals with Mus musculus. Put plainly: Immunosuppressive activity in anti-CD3-stimulated mouse assessed as reduction in IL-2 level in whole blood at 65 mg/kg, po measured after 1 hr by flow cytometry analysis. More on the design: scale not given: the % may be the effect or the level left.
Experiment [13] concerns Mus musculus. Put plainly: Immunosuppressive activity in anti-CD3-stimulated mouse assessed as reduction in IL-2 level in whole blood at 65 mg/kg, po measured after 4 hrs by flow cytometry analysis. More on the design: scale not given: the % may be the effect or the level left.
In experiment [14] the test system is Mus musculus. In words: Immunosuppressive activity in anti-CD3-stimulated mouse assessed as reduction in IL-2 level in whole blood at 25 mg/kg, po measured after 1 hr by flow cytometry analysis. More on the design: scale not given: the % may be the effect or the level left.
Experiment [15] deals with Mus musculus. In words: Immunosuppressive activity in anti-CD3-stimulated mouse assessed as reduction in IL-2 level in whole blood at 25 mg/kg, po measured after 8 hr by flow cytometry analysis. More on the design: scale not given: the % may be the effect or the level left.
Experiment [16] deals with Mus musculus. Put plainly: Immunosuppressive activity in anti-CD3-stimulated mouse assessed as reduction in IL-2 level in whole blood at 25 mg/kg, po measured after 4 hr by flow cytometry analysis. On the set-up: scale not given: the % may be the effect or the level left.
The subject of experiment [17] is Mus musculus. Put plainly: Immunosuppressive activity in anti-CD3-stimulated mouse assessed as reduction in IL-2 level in whole blood at 50 mg/kg, po measured after 1 hr by flow cytometry analysis. More on the design: scale not given: the % may be the effect or the level left.
Experiment [18] concerns Mus musculus. Put plainly: Immunosuppressive activity in anti-CD3-stimulated mouse assessed as reduction in IL-2 level in whole blood at 50 mg/kg, po measured after 8 hr by flow cytometry analysis. On the set-up: scale not given: the % may be the effect or the level left.
For experiment [19], the system named is Mus musculus. Put plainly: Immunosuppressive activity in anti-CD3-stimulated mouse assessed as reduction in IL-2 level in whole blood at 50 mg/kg, po measured after 4 hrs by flow cytometry analysis. More on the design: scale not given: the % may be the effect or the level left.
Experiment [20] has as its system Mus musculus. In words: Immunosuppressive activity in BALB/c mouse allografted with C57 mouse cardiac tissue assessed as suppression of graft rejection by measuring graft median survival time at 4 mg/kg, IM.

For `CC(C)(C)C(=O)NC(=O)c1ncn([C@@H]2O[C@H](COC(=O)C(C)(C)C)[C@@H](O)[C@H]2O)c1O`, the figures for the MST in experiment [1] and in [5] were 11 days and 55 days, respectively. Moreover, the Activity in experiment [2] turned out to be 19.4%; in experiment [3], 64.4%; in [4] it was 61.3%.
As to `NC(=O)c1ncn([C@@H]2O[C@H](COC(=O)[C@@H](N)CC(=O)OCc3ccccc3)[C@@H](O)[C@H]2O)c1O.O=C(O)C(F)(F)F`, the Activity in [6] is 77%; in experiment [8], 32.7%; in experiment [10], 27.7%. Moreover, the results for the MST in experiment [7] and in [9] were 11 days and 15.5 days, respectively.
For the compound `CC(C)CCOC(=O)C[C@H](NP(=O)(OC[C@H]1O[C@@H](n2cnc(C(N)=O)c2O)[C@H](O)[C@@H]1O)Oc1ccccc1)C(=O)OCCC(C)C` (stereo not given in full), the Activity is reported as 17.5% in experiment [11], 14.7% in [12] and 18.3% in experiment [13].
Regarding `NC(=O)c1ncn([C@@H]2O[C@H](CO)[C@@H](O)[C@H]2O)c1O` [MIZORIBINE], the Activity in [14] was 55.6%; in [15], 7.3%; in experiment [16], 8.6%.
Take `COc1c(C)c2c(c(O)c1C/C=C(\C)CCC(=O)OCCN1CCOCC1)C(=O)OC2` [MYCOPHENOLATE MOFETIL]: the values for the Activity in [17], in experiment [18] and in [19] were 3.4%, 81.7% and 52.3%, respectively.
On to `C=CC[C@@H]1/C=C(\C)C[C@H](C)C[C@H](OC)[C@H]2O[C@@](O)(C(=O)C(=O)N3CCCC[C@H]3C(=O)O[C@H](/C(C)=C/[C@@H]3CC[C@@H](O)[C@H](OC)C3)[C@H](C)[C@@H](O)CC1=O)[C@H](C)C[C@@H]2OC` [TACROLIMUS ANHYDROUS], for which, in experiment [20], the MST is 8 days.
